Reference: patent publication US12662469B2 (SIRONAX LTD, priority 2018, dated 2026)

test system: Cell Necrosis; assay: Cell necrosis assay / cell viability assay (necrosis inhibitor activity); format: cell-based; conditions: necrosis inhibitor activity; EC data for 14-191 extrapolated; read-out: EC50

Cc1csc(OC2CN(C(=O)N3N=CCC3c3cc(F)cc(F)c3)C2)n1 (centres unmarked) [Compound 175] was tested. Which EC50 did it give?
The EC50 was 0.001 to 1 µM.

O=C(c1ccco1)N1CCN(C(=O)N2N=CCC2c2ccccc2)CC1 (centres unmarked) [Compound 94, (4-(furan-2-carbonyl)piperazin-1-yl)(5-phenyl-4,5-dihydro-1H-pyrazol-1-yl)methanone] was tested. Which EC50 did it give?
The EC50 was 1 to 10 µM.

O=C(N1CC(Cc2ccc3nc[nH]c3c2)C1)N1N=CCC1c1cc(F)cc(F)c1 (centres unmarked) [Compound 191] was tested. Which EC50 did it give?
Its EC50 is 0.001 to 1 µM.

O=C(N1CC(Cc2ccc(F)cc2F)C1)N1N=CCC1c1cccc(F)c1 (centres unmarked) [Compound 53, (3-(2,4-difluorobenzyl)azetidin-1-yl)(5-(3-fluorophenyl)-4,5-dihydro-1H-pyrazol-1-yl)methanone] was tested. Which EC50 did it give?
Its EC50 is 0.001 to 1 µM.

O=C1NCc2c1csc2OC1CN(C(=O)N2N=CCC2c2cc(F)cc(F)c2)C1 (centres unmarked) [Compound 168] was tested. Which EC50 did it give?
The EC50 was 0.001 to 1 µM.

CNC(=O)c1cc(OC2CN(C(=O)N3N=CCC3c3cc(F)cc(F)c3)C2)ccc1F (centres unmarked) [Compound 162] was tested. Which EC50 did it give?
Its EC50 is 0.001 to 1 µM.

For O=C(N1CC(Oc2ccccc2F)C1)N1N=CC[C@H]1c1cc(F)cc(F)c1 [Compound 144], which EC50 is on record?
Its EC50 is 0.001 to 1 µM.

With O=C(N1CC(Oc2nc3c(=O)[nH]ccc3s2)C1)N1N=CCC1c1cc(F)cc(F)c1 (centres unmarked) [Compound 174] as the compound, how does the EC50 read?
The EC50 was 0.001 to 1 µM.

Which EC50 does the source give for CN(c1ccccc1)C1CN(C(=O)N2N=CCC2c2ccccc2)C1 (centres unmarked) [Compound 20, (3-(methyl(phenyl)amino)azetidin-1-yl)(5-phenyl-4,5-dihydro-1H-pyrazol-1-yl)methanone] here?
The EC50 was 1 to 10 µM.

Which EC50 does the source give for C[C@@H]1CN(c2ncc(F)cn2)C[C@H](C)N1C(=O)N1N=CCC1c1cccc(F)c1 (stereo partly drawn) [Compound 29, (5-(3-fluorophenyl)-4,5-dihydro-1H-pyrazol-1-yl)((2R,6S)-4-(5-fluoropyrimidin-2-yl)-2,6-dimethylpiperazin-1-yl)methanone] here?
The EC50 was 0.001 to 1 µM.

C[C@H]1CN(c2ncccn2)CCN1C(=O)N1N=CCC1c1ccccc1 (stereo in doubt) [Compound 112B, (S)-(2-methyl-4-(pyrimidin-2-yl)piperazin-1-yl)(5-phenyl-4,5-dihydro-1H-pyrazol-1-yl)methanone] was tested. Which EC50 did it give?
The EC50 was 1 to 10 µM.

Which EC50 does the source give for CNC(=O)c1cccc(OC2CN(C(=O)N3N=CCC3c3cc(F)cc(F)c3)C2)c1 (centres unmarked) [Compound 163] here?
The EC50 was 0.001 to 1 µM.

How did the EC50 turn out when O=C(N1CC(=Cc2ccc(Cl)cc2F)C1)N1N=CCC1c1cc(F)cc(F)c1 (centres unmarked) [Compound 138] was run?
Its EC50 is 0.001 to 1 µM.

How did the EC50 turn out when O=C(N1CC(Cc2ccccc2Cl)C1)N1N=CCC1c1ccccc1 (centres unmarked) [Compound 47, (3-(2-chlorobenzyl)azetidin-1-yl)(5-phenyl-4,5-dihydro-1H-pyrazol-1-yl)methanone] was run?
The EC50 was 0.001 to 1 µM.

How did the EC50 turn out when Cc1cnc(OC2CN(C(=O)N3N=CCC3c3cc(F)cc(F)c3)C2)s1 (centres unmarked) [Compound 176] was run?
Its EC50 is 0.001 to 1 µM.

With O=C(N1CC(Cc2cccc(Cl)c2)C1)N1N=CCC1c1ccccc1 (centres unmarked) [Compound 48, (3-(3-chlorobenzyl)azetidin-1-yl)(5-phenyl-4,5-dihydro-1H-pyrazol-1-yl)methanone] as the compound, how does the EC50 read?
Its EC50 is 0.001 to 1 µM.

With N#Cc1cnc(OC2CN(C(=O)N3N=CCC3c3ccccc3)C2)s1 (centres unmarked) [Compound 120, 2-((1-(5-phenyl-4,5-dihydro-1H-pyrazole-1-carbonyl)azetidin-3-yl)oxy)thiazole-5-carbonitrile] as the compound, how does the EC50 read?
Its EC50 is 1 to 10 µM.

O=C(N1CC(Oc2ccc3oc(=O)[nH]c3c2)C1)N1N=CCC1c1cc(F)cc(F)c1 (centres unmarked) [Compound 185] was tested. Which EC50 did it give?
The EC50 was 0.001 to 1 µM.

With O=C(N1CC[C@@H](Oc2ncc(F)cn2)C1)N1N=CCC1c1ccccc1 (stereo partly drawn) [Compound 34, ((R)-3-((5-fluoropyrimidin-2-yl)oxy)pyrrolidin-1-yl)(5-phenyl-4,5-dihydro-1H-pyrazol-1-yl)methanone] as the compound, how does the EC50 read?
The EC50 was 1 to 10 µM.

For CNC(=O)c1cccc(OC2CN(C(=O)N3N=CCC3c3cc(F)cc(F)c3)C2)c1Cl (centres unmarked) [Compound 164], which EC50 is on record?
Its EC50 is 0.001 to 1 µM.

O=C(N1CC(Cc2ccc(F)cc2F)C1)N1OCC[C@H]1c1ccccc1 [Compound 82, (S)-(3-(2,4-difluorobenzyl)azetidin-1-yl)(3-phenylisoxazolidin-2-yl)methanone] was tested. Which EC50 did it give?
Its EC50 is 0.001 to 1 µM.

same assay, conditions: necrosis inhibitor activity; compounds outside 14-191; read-out: EC50

Which EC50 does the source give for O=C(N1CCN(c2ncc3cc[nH]c3n2)CC1)N1N=CC[C@H]1c1cc(F)cc(F)c1 [Compound 279, (S)-(4-(7H-pyrrolo[2,3-d]pyrimidin-2-yl)piperazin-1-yl)(5-(3,5-difluorophenyl)-4,5-dihydro-1H-pyrazol-1-yl)methanone] here?
Its EC50 is 0.001 to 1 µM.

O=C1CCc2cc(F)c(OC3CN(C(=O)N4N=CC[C@H]4c4cc(F)cc(F)c4)C3)cc2N1 [Compound 202, (S)-7-((1-(5-(3,5-difluorophenyl)-4,5-dihydro-1H-pyrazole-1-carbonyl)azetidin-3-yl)oxy)-6-fluoro-3,4-dihydroquinolin-2(1H)-one] was tested. Which EC50 did it give?
The EC50 was 0.001 to 1 µM.

For N#Cc1cc(O[C@@H]2CCN(C(=O)N3N=CC[C@H]3c3cc(F)cc(F)c3)C2)ccc1F [Compound 342, 5-(((R)-1-((S)-5-(3,5-difluorophenyl)-4,5-dihydro-1H-pyrazole-1-carbonyl)pyrrolidin-3-yl)oxy)-2-fluorobenzonitrile], which EC50 is on record?
Its EC50 is 0.001 to 1 µM.

With O=C(N1CC(Oc2ccc(O)nc2)C1)N1N=CCC1c1cc(F)cc(F)c1 (centres unmarked) [Compound 217, (5-(3,5-difluorophenyl)-4,5-dihydro-1H-pyrazol-1-yl)(3-((6-hydroxypyridin-3-yl)oxy)115zetidine-1-yl)methanone] as the compound, how does the EC50 read?
Its EC50 is 0.001 to 1 µM.

With CN(C(=O)OC(C)(C)C)c1nccc(O[C@@H]2CCN(C(=O)N3N=CC[C@H]3c3cc(F)cc(F)c3)C2)n1 [Compound 366, tert-butyl (4-(((R)1-((S)-5-(3,5-difluorophenyl)-4,5-dihydro-1H-pyrazole-1-carbonyl)pyrrolidin-3-yl)oxy)pyrimidin-2-yl)(methyl)carbamate] as the compound, how does the EC50 read?
Its EC50 is 0.001 to 1 µM.

Which EC50 does the source give for CC1Oc2cc(F)c(OC3CN(C(=O)N4N=CC[C@H]4c4ccccc4)C3)cc2NC1=O (stereo partly drawn) [Compound 352, 7-fluoro-2-methyl-6-((1-((S)-5-phenyl-4,5-dihydro-1H-pyrazole-1-carbonyl)azetidin-3-yl)oxy)-2H-benzo[b][1,4]oxazin-3(4H)-one] here?
Its EC50 is 0.001 to 1 µM.

O=C(NC1CCCCC1)N1N=CCC1c1ccccc1 (centres unmarked) [Compound 10, N-cyclohexyl-5-phenyl-4,5-dihydro-1H-pyrazole-1-carboxamide] was tested. Which EC50 did it give?
Its EC50 is 1 to 10 µM.

For CNc1ncc(F)c(OC2CN(C(=O)N3N=CC[C@H]3c3cc(F)cc(F)c3)C2)n1 [Compound 268, (S)-(5-(3,5-difluorophenyl)-4,5-dihydro-1H-pyrazol-1-yl)(3-((5-fluoro-2-(methylamino)pyrimidin-4-yl)oxy)azetidin-1-yl)methanone], which EC50 is on record?
Its EC50 is 0.001 to 1 µM.

COc1nc(N2CCN(C(=O)N3N=CC[C@H]3c3cc(F)cc(F)c3)CC2)ncc1F [Compound 271, (S)-(5-(3,5-difluorophenyl)-4,5-dihydro-1H-pyrazol-1-yl)(4-(5-fluoro-4-methoxypyrimidin-2-yl)piperazin-1-yl)methanone] was tested. Which EC50 did it give?
The EC50 was 0.001 to 1 µM.

With NC(=O)c1ccc(C=C2CN(C(=O)N3N=CC[C@H]3c3cc(F)cc(F)c3)C2)cn1 [Compound 295, (S)-5-((1-(5-(3,5-difluorophenyl)-4,5-dihydro-1H-pyrazole-1-carbonyl)azetidin-3-ylidene)methyl)picolinamide] as the compound, how does the EC50 read?
Its EC50 is 0.001 to 1 µM.

O=C(N1CC(=Cc2ccc3oncc3c2)C1)N1N=CC[C@H]1c1cc(F)cc(F)c1 [Compound 318, (S)-(3-(benzo[d]isoxazol-5-ylmethylene)azetidin-1-yl)(5-(3,5-difluorophenyl)-4,5-dihydro-1H-pyrazol-1-yl)methanone] was tested. Which EC50 did it give?
Its EC50 is 0.001 to 1 µM.

For NC(=O)c1cnc(OC2CN(C(=O)N3N=CC[C@H]3c3cc(F)cc(F)c3)C2)s1 [Compound 280, (S)-2-((1-(5-(3,5-difluorophenyl)-4,5-dihydro-1H-pyrazole-1-carbonyl)azetidin-3-yl)oxy)thiazole-5-carboxamide], which EC50 is on record?
Its EC50 is 0.001 to 1 µM.

For O=C(N1CC(=Cc2cc(NCCN3CCOCC3)ccc2F)C1)N1N=CC[C@H]1c1cc(F)cc(F)c1 [Compound 371, (S)-(5-(3,5-difluorophenyl)-4,5-dihydro-1H-pyrazol-1-yl)(3-(2-fluoro-5-((2-morpholinoethyl)amino)benzylidene)azetidin-1-yl)methanone], which EC50 is on record?
The EC50 was 0.001 to 1 µM.

Cc1n[nH]c2cc(C=C3CN(C(=O)N4N=CC[C@H]4c4cc(F)cc(F)c4)C3)ccc12 [Compound 289, (S)-(5-(3,5-difluorophenyl)-4,5-dihydro-1H-pyrazol-1-yl)(3-((3-methyl-1H-indazol-6-yl)methylene)azetidin-1-yl)methanone] was tested. Which EC50 did it give?
The EC50 was 0.001 to 1 µM.

Which EC50 does the source give for O=C(N1CC(Nc2ncc(F)cc2F)C1)N1N=CC[C@H]1c1cc(F)cc(F)c1 [Compound 254, (S)-(5-(3,5-difluorophenyl)-4,5-dihydro-1H-pyrazol-1-yl)(3-((3,5-difluoropyridin-2-yl)amino)azetidin-1-yl)methanone] here?
The EC50 was 0.001 to 1 µM.

O=C(N1CC(Nc2ccc(F)cc2F)C1)N1N=CCC1c1cc(F)cc(F)c1 (centres unmarked) [Compound 255, (5-(3,5-difluorophenyl)-4,5-dihydro-1H-pyrazol-1-yl)(3-((2,4-difluorophenyl)amino)azetidin-1-yl)methanone] was tested. Which EC50 did it give?
Its EC50 is 0.001 to 1 µM.

With N#Cc1cc(Cl)nc(O[C@H]2CCN(C(=O)N3N=CC[C@H]3c3cc(F)cc(F)c3)C2)c1 [Compound 330, 2-chloro-6-(((S)-1-((S)-5-(3,5-difluorophenyl)-4,5-dihydro-1H-pyrazole-1-carbonyl)pyrrolidin-3-yl)oxy)isonicotinonitrile] as the compound, how does the EC50 read?
The EC50 was 0.001 to 1 µM.

Which EC50 does the source give for CC(C)CC(=O)Nc1nc(N2CCN(C(=O)N3N=CC[C@H]3c3cc(F)cc(F)c3)CC2)ncc1F [Compound 291, (S)—N-(2-(4-(5-(3,5-difluorophenyl)-4,5-dihydro-1H-pyrazole-1-carbonyl)piperazin-1-yl)-5-fluoropyrimidin-4-yl)-3-methylbutanamide] here?
The EC50 was 0.001 to 1 µM.

For O=C(N1CC(=Cc2cc3[nH]nc(F)c3cc2F)C1)N1N=CC[C@H]1c1cncc(F)c1 [Compound 322, (S)-(3-((3,5-difluoro-1H-indazol-6-yl)methylene)azetidin-1-yl)(5-(5-fluoropyridin-3-yl)-4,5-dihydro-1H-pyrazol-1-yl)methanone], which EC50 is on record?
Its EC50 is 0.001 to 1 µM.

With N#Cc1cc(F)cc([C@@H]2CC=NN2C(=O)N2CC(=Cc3cc4[nH]nc(F)c4cc3F)C2)c1 [Compound 297, (S)-3-(1-(3-((3,5-difluoro-1H-indazol-6-yl)methylene)azetidine-1-carbonyl)-4,5-dihydro-1H-pyrazol-5-yl)-5-fluorobenzonitrile] as the compound, how does the EC50 read?
The EC50 was 0.001 to 1 µM.
